Reference: patent US20250017914A1, “6-AZA-QUINOLINE DERIVATIVES AND RELATED USES” (Black Diamond Therapeutics, Inc., priority 2021, published 2025)

Target: T1, BaF3 BRAF-KIAA1549 fusion cells (Homo sapiens, UniProt P15056)
T1 construct: The BRAF-KIAA1549 fusion mutant was subcloned into pMXs-IRES-Blasticidin (RTV-016, Cell Biolabs, San Diego, CA); No tag given; Q9HCM3 (UPF0606 protein KIAA1549)
Test: BaF3 BRAF-KIAA1549 fusion cell proliferation assay (CellTiterGlo, 96 hours)
Type: cell-based
Details: Table A1
Procedure: Retroviral Production: The BRAF-KIAA1549 fusion mutant was subcloned into pMXs-IRES-Blasticidin (RTV-016, Cell Biolabs, San Diego, CA). Retrovirus was produced by transfection of HEK 293T cells with the retroviral BRAF mutant expression vector pMXs-IRES-Blasticidin (RTV-016, Cell Biolabs), pCMV-Gag-Pol vector and pCMV-VSV-G-Envelope vector. Briefly, HEK 293T cells were plated in Poly-D-lysine coated 6-well plate (2.5×10^5 cells per well) and incubated overnight. The next day, retroviral plasmids (1 μg of BRAF-KIAA fusion mutant, 0.32 μg of pCMV-Gag-Pol and 0.165 μg pCMV-VSV-G) were mixed in 300 μL of Optimem (31985, Life Technologies). The mixture was incubated at room temperature for 5 minutes and then added to Optimem containing transfection reagent Lipofectamine (11668, Invitrogen) and incubated for 20 minutes. The mixture was then added dropwise to HEK 293T cells. The next day the medium was replaced with fresh culture medium and retrovirus was harvested at 24 hours.
Generation of BRAF-KIAA1549 fusion stable cell line: BaF3 cells were plated in V-bottom 96 well plate (COSTAR #3894) in 80 μL of RPMI/10% FBS and 0.01 ng/mL mouse IL-3, supplemented with 8 μg/mL polybrene (4×10^4 cells/well). Cells were transduced with 20 μL of BRAF-KIAA1549 fusion viral supernatant by centrifuging for 30 minutes at 1000 rpm. Cells were placed in a 37° C. incubator overnight. Next day 100 μL of RPMI/10% FBS and 0.01 ng/mL mouse IL-3 was added. After 24 hours, 100 μL of cells were transferred to a 24 well plate containing 900 μL of RPM/10% FBS and 15 μg/mL Blasticidin. Contents of the 24 well plate were sampled for cell viability via CellTiterGlo (Promega) over a 2-week period.
Assay for cell proliferation: BaF3 BRAF-KIAA1549 fusion cells were resuspended at 1.5×10^5 c/mL in RPMI containing 10% Heat Inactivated FBS, 1% L-glutamine and dispensed in duplicate (7×10^4 c/well) into 384 well plates. To determine the effect of compound on cell proliferation, BaF3 BRAF-KIAA1549 fusion cells were incubated for 96 hours in the presence of vehicle control (DMSO) or compound at varying concentrations. Inhibition of cell growth was determined by luminescent quantification (Envision by Perkin Elmer) of intracellular ATP content using CellTiterGlo (Promega), according to the protocol provided by the manufacturer. To determine the IC50 values, the vehicle-treated cells were normalized as viable cells and analyzed using the CDD Vault, Collaborative Drug Discovery, Burlingame, CA (the Levenberg-Marquardt algorithm; Levenberg, K., […]; Marquardt, D., 1963).
Tables A1 and A2 assign each compound a code for potency in the BaF3 BRAF-KIAA1549 fusion cell proliferation assay: A, B, C, or D. According to the code, A represents an IC50 value <20 nM; B represents an IC50 value ≥20 nM and <100 nM; C represents an IC50 value ≥100 nM and <500 nM; and D represents an IC50 value ≥500 nM.

T1 sequence (P15056 whole entry, change not shown, the tested form may be a part): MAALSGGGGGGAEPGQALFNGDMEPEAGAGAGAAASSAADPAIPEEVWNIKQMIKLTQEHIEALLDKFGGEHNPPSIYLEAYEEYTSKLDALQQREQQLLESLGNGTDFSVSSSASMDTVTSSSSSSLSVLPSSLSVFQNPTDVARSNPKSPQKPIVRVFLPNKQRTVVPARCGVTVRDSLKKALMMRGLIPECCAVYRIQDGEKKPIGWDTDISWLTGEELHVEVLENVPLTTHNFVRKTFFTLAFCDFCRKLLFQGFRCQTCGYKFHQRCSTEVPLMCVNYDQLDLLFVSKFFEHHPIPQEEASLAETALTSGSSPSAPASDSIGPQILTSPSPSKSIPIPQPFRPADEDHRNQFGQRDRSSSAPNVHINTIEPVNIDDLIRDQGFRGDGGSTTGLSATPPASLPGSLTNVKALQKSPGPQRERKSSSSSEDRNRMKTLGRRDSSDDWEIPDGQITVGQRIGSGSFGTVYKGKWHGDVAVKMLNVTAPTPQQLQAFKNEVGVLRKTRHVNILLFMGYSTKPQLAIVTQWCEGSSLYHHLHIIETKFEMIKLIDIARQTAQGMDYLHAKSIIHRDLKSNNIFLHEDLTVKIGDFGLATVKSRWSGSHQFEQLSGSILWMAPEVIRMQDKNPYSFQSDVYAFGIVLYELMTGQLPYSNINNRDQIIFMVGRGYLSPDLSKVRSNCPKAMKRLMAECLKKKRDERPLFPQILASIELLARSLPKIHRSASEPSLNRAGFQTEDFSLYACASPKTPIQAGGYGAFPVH

GI50	Compound
≥ 500 nM	CNc1cc2ncc(-c3cc(NC(=O)c4cc(C(C)(C)C#N)ccn4)cc(Cl)c3C)cc2cn1 [Compound 48, N-(3-Chloro-4-methyl-5-(7-(methylamino)-1,6-naphthyridin-3-yl)phenyl)-4-(2-cyanopropan-2-yl)picolinamide]
20 to 100 nM	CNc1cc2ncc(-c3cc(NC(=O)c4cc(C5(C#N)CCC5)ccn4)cnc3C)cc2cn1 [Compound 31, 4-(1-Cyanocyclobutyl)-N-(6-methyl-5-(7-(methylamino)-1,6-naphthyridin-3-yl)pyridin-3-yl)picolinamide]
< 20 nM	CNc1cc2ncc(-c3cc(NC(=O)c4cncc(C(F)(F)F)c4)ccc3C)cc2cn1 [Compound 3, N-(4-methyl-3-(7-(methylamino)-1,6-naphthyridin-3-yl)phenyl)-5-(trifluoromethyl)nicotinamide]
20 to 100 nM	CCNc1cc2ncc(-c3cc(NC(=O)c4cc(C(C)(C)C#N)ccn4)cnc3C)cc2cn1 [Compound 175, 4-(2-cyanopropan-2-yl)-N-(5-(7-(ethylamino)-1,6-naphthyridin-3-yl)-6-methylpyridin-3-yl)picolinamide]
< 20 nM	CNc1cc2ncc(-c3cc(NC(=O)c4ccnc(C(C)(C)F)c4)cnc3C)cc2cn1 [Compound 24, 2-(2-Fluoropropan-2-yl)-N-(6-methyl-5-(7-(methylamino)-1,6-naphthyridin-3-yl)pyridin-3-yl)isonicotinamide]
< 20 nM	CNc1cc2ncc(-c3cc(NC(=O)c4cc(C(C)(C)C#N)ccn4)ccc3C)cc2cn1 [Compound 14, 4-(2-Cyanopropan-2-yl)-N-(4-methyl-3-(7-(methylamino)-1,6-naphthyridin-3-yl)phenyl)picolinamide]
20 to 100 nM	CNc1cc2ncc(-c3cc(NC(=O)c4cc(C(C)(C)C#N)ccn4)cc(F)c3F)cc2cn1 [Compound 39, 4-(2-Cyanopropan-2-yl)-N-(3,4-difluoro-5-(7-(methylamino)-1,6-naphthyridin-3-yl)phenyl)picolinamide]
20 to 100 nM	CNc1cc2ncc(-c3cc(NC(=O)c4cc(C(F)(F)F)ccn4)nnc3C)cc2cn1 [Compound 75, N-(6-methyl-5-(7-(methylamino)-1,6-naphthyridin-3-yl)pyridazin-3-yl)-4-(trifluoromethyl)picolinamide]
< 20 nM	CNc1cc2ncc(-c3cc(NC(=O)C[C@@H]4C[C@H](C(F)(F)F)CCO4)ccc3C)cc2cn1 (single isomer, unassigned) [Compound 7, N-(4-Methyl-3-(7-(methylamino)-1,6-naphthyridin-3-yl)phenyl)-2-(4-(trifluoromethyl)tetrahydro-2H-pyran-2-yl)acetamide]
20 to 100 nM	CNc1cc2ncc(-c3cc(NC(=O)CN4CCC[C@H](C(F)(F)F)C4)ccc3C)cc2cn1 [Compound 63, (S)—N-(4-Methyl-3-(7-(methylamino)-1,6-naphthyridin-3-yl)phenyl)-2-(3-(trifluoromethyl)piperidin-1-yl)acetamide]
≥ 500 nM	CNc1cc2ncc(-c3cc(NC(=O)c4ccc(OC(F)F)cn4)cnc3C)cc2cn1 [Compound 72, 5-(Difluoromethoxy)-N-(6-methyl-5-(7-(methylamino)-1,6-naphthyridin-3-yl)pyridin-3-yl)picolinamide]
20 to 100 nM	CNc1cc2ncc(-c3cc(NC(=O)[C@H](C)n4cnc(C(F)(F)F)n4)ccc3C)cc2cn1 (single isomer, unassigned) [Compound 68]

Same assay, conditions: Table A2

GI50	Compound
20 to 100 nM	CNc1cc2ncc(-c3cc(NC(=O)c4cnc5n4C[C@H](C)CC5)cnc3C)cc2cn1 (single isomer, unassigned) [Compound 259]
20 to 100 nM	CNc1cc2ncc(-c3cc(NC(=O)c4n[nH]c5c4CCCC5)cnc3C)cc2cn1 [Compound 229, N-(6-methyl-5-(7-(methylamino)-1,6-naphthyridin-3-yl)pyridin-3-yl)-4,5,6,7-tetrahydro-1H-indazole-3-carboxamide]
20 to 100 nM	CNc1cc2ncc(-c3cc(NC(=O)c4cc(C(O)CC(F)(F)F)ccn4)cnc3C)cc2cn1 (centres unmarked) [Compound 242, N-(6-methyl-5-(7-(methylamino)-1,6-naphthyridin-3-yl)pyridin-3-yl)-4-(3,3,3-trifluoro-1-hydroxypropyl)picolinamide]
20 to 100 nM	CCC(C)c1ccnc(C(=O)Nc2cnc(C)c(-c3cnc4cc(NC)ncc4c3)c2)c1 (centres unmarked) [Compound 227, 4-(sec-butyl)-N-(6-methyl-5-(7-(methylamino)-1,6-naphthyridin-3-yl)pyridin-3-yl)picolinamide]
< 20 nM	CNc1cc2ncc(-c3cc(NC(=O)c4cccc(C(C)(F)F)c4)cnc3C)cc2cn1 [Compound 200, 3-(1,1-difluoroethyl)-N-(6-methyl-5-(7-(methylamino)-1,6-naphthyridin-3-yl)pyridin-3-yl)benzamide]
≥ 500 nM	CNc1cc2ncc(-c3cc(NC(=O)c4cccc5c4CCC5O)cnc3C)cc2cn1 (centres unmarked) [Compound 219, 1-hydroxy-N-(6-methyl-5-(7-(methylamino)-1,6-naphthyridin-3-yl)pyridin-3-yl)-2,3-dihydro-1H-indene-4-carboxamide]
≥ 500 nM	CNc1cc2ncc(-c3cc(NC(=O)c4cccc(C(O)C(F)(F)F)n4)cnc3C)cc2cn1 (centres unmarked) [Compound 210, N-(6-methyl-5-(7-(methylamino)-1,6-naphthyridin-3-yl)pyridin-3-yl)-6-(2,2,2-trifluoro-1-hydroxyethyl)picolinamide]
20 to 100 nM	CNc1cc2ncc(-c3cc(NC(=O)c4csc5c4CCC(C)C5)cnc3C)cc2cn1 (centres unmarked) [Compound 235, 6-methyl-N-(6-methyl-5-(7-(methylamino)-1,6-naphthyridin-3-yl)pyridin-3-yl)-4,5,6,7-tetrahydrobenzo[b]thiophene-3-carboxamide]
20 to 100 nM	CNc1cc2ncc(-c3cc(NC(=O)c4nn(C)c5c4CCCC5)cnc3C)cc2cn1 [Compound 233, 1-methyl-N-(6-methyl-5-(7-(methylamino)-1,6-naphthyridin-3-yl)pyridin-3-yl)-4,5,6,7-tetrahydro-1H-indazole-3-carboxamide]
< 20 nM	CNc1cc2ncc(-c3cc(NC(=O)c4cnn5c4CC(C)CC5)ccc3C)cc2cn1 (centres unmarked) [Compound 265, 5-methyl-N-(4-methyl-3-(7-(methylamino)-1,6-naphthyridin-3-yl)phenyl)-4,5,6,7-tetrahydropyrazolo[1,5-a]pyridine-3-carboxamide]
≥ 500 nM	CNc1cc2ncc(-c3cc(NC(=O)c4cccc5c4CCCC5O)cnc3C)cc2cn1 (centres unmarked) [Compound 199, 5-hydroxy-N-(6-methyl-5-(7-(methylamino)-1,6-naphthyridin-3-yl)pyridin-3-yl)-5,6,7,8-tetrahydronaphthalene-1-carboxamide]
20 to 100 nM	CNc1cc2ncc(-c3cc(NC(=O)c4cc(C(N(C)C)C(F)(F)F)ccn4)ccc3C)cc2cn1 (centres unmarked) [Compound 218, 4-(1-(dimethylamino)-2,2,2-trifluoroethyl)-N-(4-methyl-3-(7-(methylamino)-1,6-naphthyridin-3-yl)phenyl)picolinamide]
20 to 100 nM	CNc1cc2ncc(-c3cc(NC(=O)c4cc(C(C)(C)C(N)=O)ccn4)ccc3C)cc2cn1 [Compound 255]
100 to 500 nM	CNc1cc2c(C#N)cc(-c3cc(NC(=O)c4ccnc(C(F)(F)F)c4)ccc3C)cc2cn1 [Compound 273, N-(3-(5-cyano-3-(methylamino)isoquinolin-7-yl)-4-methylphenyl)-2-(trifluoromethyl)isonicotinamide]
< 20 nM	CNc1cc2ncc(-c3cc(NC(=O)c4c[nH]c5ccc(C)cc45)ccc3C)cc2cn1 [Compound 263, 5-methyl-N-(4-methyl-3-(7-(methylamino)-1,6-naphthyridin-3-yl)phenyl)-1H-indole-3-carboxamide]
20 to 100 nM	CNc1cc2ncc(-c3cc(NC(=O)c4cnc5n4CC(C(F)(F)F)CC5)cnc3C)cc2cn1 (centres unmarked) [Compound 243]
20 to 100 nM	CNc1cc2ncc(-c3cc(NC(=O)c4cc([C@H](O)C(C)(F)F)ccn4)cnc3C)cc2cn1 (single isomer, unassigned) [Compound 249]
